From US12558358B2 (UNIVERZITA PALACKEHO V OLOMOUCI, priority 2019, dated 2026) come the findings set out here.

For data set [1], the system named is Per2 gene expression (mPer2-Luc reporter). Kind of data set: mPer2-Luc reporter expression in NIH3T3 cells (Example 5). The format is cell-based, mouse. Particulars: NIH3T3, first 1-12 hours after application, FIG. 5. How it is done:
Mouse embryonic fibroblasts NIH3T3 cells were grown in standard DMEM with 10% fetal calf serum. NIH3T3 cells were transfected with 1 μg of Per2-Luc reporter (Meng, 2009) using GeneJuice (Novagen) and selected under hygromycin. The cell line was clonally expanded and a single monoclonal cell line was used for further experiments. Cells were cultured in a 96-well plate in growth medium to 90+% confluence. Test compound or vehicle (DMSO) was applied to recording medium with 100 U/ml penicillin, 100 μg/ml streptomycin, 1×GlutaMAX (ThermoFisher, Waltham, MA, USA), 10% fetal calf serum (Sigma) and 0.1 mM Luciferin-EF (Promega Madison, WI, USA). Luminescence was recorded every hour for additional 144 hours in Luminoskan Ascent (ThermoFisher).

The test system of data set [2] is NIH3T3 cells with mPer2-Luc reporter. The data set is described as follows: Circadian rhythm period and amplitude, NIH3T3 cells with Per2-Luc reporter (Example 2). The class given is cell-based, mouse. How it is done:
Mouse embryonic fibroblasts NIH3T3 cells were grown in standard DMEM with 10% fetal calf serum. NIH3T3 cells were transfected with 1 μg of Per2-Luc reporter (Meng, 2009) using GeneJuice (Novagen) and selected under hygromycin. The cell line was clonally expanded and a single monoclonal cell line was used for further experiments. Cells were cultured in a 96-well plate in growth medium to 90+% confluence. Test compound or vehicle (DMSO) was applied to recording medium with 100 U/ml penicillin, 100 μg/ml streptomycin, 1×GlutaMAX (ThermoFisher, Waltham, MA, USA), 10% fetal calf serum (Sigma) and 0.1 mM Luciferin-EF (Promega Madison, WI, USA). Luminescence was recorded every hour for an additional 144 hours in a Luminoskan Ascent (ThermoFisher). Circadian rhythm analysis was performed using cosinor analysis. […] The concentration and level of other proteins, whose rhythmic expression is controlled by an oscillator in the brain and peripheral tissues (so-called clock-controlled genes), is also necessarily affected.

The next data set deals with cancer cell line A549. The data set is described as follows: Resazurin viability of A549 cells, pretreatment plus antineoplastics (Example 7). The format is cell-based, human. The note with it: pretreatment 100 μM, antineoplastics 3.3 μM, 72 incubation, FIG. 7. How it is done:
Human cancer cell line A549 was maintained in standard cultivation medium DMEM with 10% fetal bovine serum. 1000 cells were seeded into the wells of 384-well plate in 30 microliters of RPMI medium. After 24 hours, dexamethasone (final concentration 100 nM) was added in order to synchronize circadian oscillator together with N-(furan-2-ylmethyl)-7H-purin-6-amin (final concentration 100 μM) or DMSO vehicle. After 12 hours, DMSO vehicle or the evaluated antineoplastics (the final concentration 3.3 μM) were added. The compounds were dosed by ECHO system, the DMSO solutions were 1000-times concentrated. After 72 incubation, 1000-times concentrated solution of resazurin in DMSO to a final concentration of 0.0125 mg/ml was added. Fluorescence was measured after 3-hour incubation. […] An equivalent cytotoxic effect can be therefore achieved by an application of lower dose of antineoplastics.
For orientation: The colour change of resazurin is a common sign of viable cells or microbes.

The format of data set [3] is in vitro ADME. Particulars: human, 2 μM. As for the experimental part: This system is further referred to as RF-MS. Preparation of the lyophilized samples for the analysis is described in the sections dedicated to the individual methods. Lyophilized samples were dissolved in the mobile phase (95% water, 5% acetonitrile, 0.1% formic acid) with respective internal standards. The dissolved samples were aspired directly from 96-well plates into a 10 μL sample loop and passed through a C4 cartridge (Agilent Technologies) with solvent A (95% water, 0.01% formic acid, 5% acetonitrile) at a flow rate of 1.5 mL/minute for 3 seconds. After the desalting step, the analyte retained on the cartridge was eluted with solvent B (95% acetonitrile, 5% 0.01% formic acid) to the mass spectrometer at a flow rate of 0.4 mL/minute for 7 seconds. Mass spectrometry was carried out using electrospray ionization in the positive ion mode. Daughter ion peaks were identified using a multiple-reaction monitoring protocol.
Test compound (a final concentration of 2 μM) was incubated with human plasma (Transfusion Department, University Hospital Olomouc, Olomouc, Czech Republic) for 0, 15, 30, 60 and 120 min at 37° C. The reactions were stopped by addition of acetonitrile-methanol mixture (2:1). Samples were stored at −80° C. overnight and centrifuged (2811×g, 6 min, 4° C.). Supernatants were lyophilized.

The subject of the next data set is Human fibroblasts BJ. Kind of data set: Long-term cultivation of BJ fibroblasts, cell count (Example 9). The class given is cell-based. Particulars: 12.5-100 µM, 12th day, FIG. 8. How it is done: Human fibroblasts BJ were maintained in standard cultivation medium DMEM with 10% fetal bovine serum. The experiment was performed in 24-well plates. 10,000 cells in DMEM medium with 10% fetal bovine serum were seeded into the wells. The test compound was added to a final concentration in the range of 12.5-100 µM after 24 hours. DMSO vehicle was used as a negative control. In order to obtained better idea of test variability, 8 control wells were used (columns A and D). The cultivation medium containing either test compound or DMSO was replaced twice a week. The cells were trypsinized on the 12th day and counted on Coulter Z2 apparatus.

The subject of data set [4] is explanted suprachiasmatic nuclei (SCN) of mPer2Luc mice. Kind of data set: PER2::Luc rhythm in organotypic SCN explants (Example 3). The class given is cell-based, mouse. How it is done:
amplitude of circadian expression of the PER2::Luc clock reporter in the explanted suprachiasmatic nuclei (SCN) of the hypothalamus, the central clock of mammals, of the transgenic mouse line Male and female mPer2Luc mice (strain B6.129S6-Per2tm1Jt/J, JAX, USA) (Yoo et al., 2004) were maintained in a light/dark cycle with 12 hours of light and 12 hours of darkness (LD12: 12), killed between 12:00 and 15:00, i.e. 6-9 hours after turning on the lights, by rapid cervical dislocation under isoflurane anesthesia, their brains were removed and 250 μm thick SCN slices in ice-cold HBSS medium were prepared using a vibratome (Leica, Wetzlar, Germany). Two explants containing SCN from each brain were prepared. Individual SCN explants were then placed on Millicell Culture Inserts (Merck, Darmstadt, Germany) inside 35 mm Petri dishes with test compound or DMSO vehicle in 1 ml air-buffered recording medium supplemented with 100 U/ml penicillin, 100 μg/ml streptomycin (Sigma-Aldrich, St. Luis, MO, USA), 1×GlutaMAX (ThermoFisher, Waltham, MA, USA), 5% fetal calf serum (Sigma) and 0.1 mM Luciferin-EF (Promega Madison, WI, USA). The dishes were sealed with vacuum Vaseline and glass coverslips and placed inside a LumiCycle (Actimetrics) for bioluminescence recording. Rhythm analysis was performed in Lumicycle Analysis software (Actimetrics).

Each structure is given as a SMILES string.

`c1coc(CNc2ncnc3nc[nH]c23)c1` [N-(furan-2-ylmethyl)-7H-purin-6-amine]: in data set [1], the Per2 gene expression result is recorded as “regulates Per2 gene expression”. In data set [2] (NIH3T3, FIG. 2), the “amplitude of circadian expression of mPer2-Luc” value is “modulates the amplitude”. The circadian rhythm period entry in data set [2] (NIH3T3 mPer2-Luc, luminescence 144 hours, cosinor analysis, FIG. 2) is recorded as “prolongs the circadian rhythm period”; in data set [4] (FIG. 3B) it was “prolongs the circadian rhythm period”. Further, in the data set with cancer cell line A549, the “activity of antineoplastics on A549 viability after pretreatment” value is “increases activity of antineoplastics”. The “Plasma stability (120 min) [% intact]” value in data set [3] was found to be 91 % intact. Besides, in the data set with Human fibroblasts BJ, the “cell growth (cell count)” value was “did not have a negative effect on cell growth”. For the same molecule, the amplitude result in data set [4] (FIG. 3C) is listed as “modulates the amplitude”.
